Data taken from patent US20200069691A1, “HETEROCYCLIC COMPOUNDS AS HIV PROTEASE INHIBITORS” (Merck Sharp & Dohme Corp., priority 2016, published 2020).

Target: T1, wild-type HIV-1 protease (Human immunodeficiency virus type 1 group M subtype B, UniProt P04585)
T1 construct: Escherichia coli expressed wild-type HIV-1 protease protein
Assay: Assay for Inhibition of Microbial Expressed HIV Protease (peptide substrate cleavage, LC-MS/MS readout)
Assay type: biochemical
Conditions: E. coli expressed wild-type HIV-1 protease, mean of at least two independent experiments, read-out: HIV Pr Enzyme HIV1 PR IC50
How it was run: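 E. coli-expressed wild-type HIV-1 protease ([…]) was preincubated with inhibitor 30 min at room temperature in pH 5.5 acetate buffer (100 mM NaCl, 0.1% BSA). Then 400 μM octapeptide substrate was added and reacted 1 h at 30 °C; inhibition came from LC-MS/MS product peak areas, mean of ≥2 experiments.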

Row | Compound | IC50 [nM]
1 | COCCn1cc(-c2ncc3c(n2)CN(C(=O)c2cc(CN4C(=N)N[C@](CCCC(F)(F)F)(c5ccc(F)cc5)C4=O)ccc2C(F)(F)F)C3)cn1 [Compound 20, (5R)-5-(4-fluorophenyl)-2-imino-3-[3-({2-[1-(2-methoxyethyl)-1H-pyrazol-4-yl]-5,7-dihydro-6H-pyrrolo[3,4-d]pyrimidin-6-yl}carbonyl)-4-(trifluoromethyl)benzyl]-5-(4,4,4-trifluorobutyl)imidazolidin-4-one] | 2.3
2 | CC(C)CC1(c2ccccc2)NC(=N)N(Cc2ccc(C(F)(F)F)c(C(=O)N3CCN(C)C(=O)C3)c2)C1=O (centres unmarked) [Compound 156, 4-{[5-{[2-imino-4-(2-methylpropyl)-5-oxo-4-phenylimidazolidin-1-yl]methyl}-2-(trifluoromethyl)phenyl]carbonyl}-1-methylpiperazin-2-one] | 13.5
3 | CC(C)CC[C@]1(c2ccccc2)NC(=N)N(Cc2ccc(S(C)(=O)=O)c(C(=O)N3Cc4nccnc4C3)c2)C1=O [Compound 126, (5R)-3-[3-(5,7-dihydro-6H-pyrrolo[3,4-b]pyrazin-6-ylcarbonyl)-4-(methylsulfonyl)-benzyl]-2-imino-5-(3-methylbutyl)-5-phenylimidazolidin-4-one] | 60.2
4 | N=C1NC(CCC2CC2)(c2cccc(F)c2)C(=O)N1Cc1ccc(C(F)(F)F)c(C(=O)N2CCn3c(nnc3C(F)(F)F)C2)c1 (centres unmarked) [Compound 78, 5-(2-cyclopropylethyl)-5-(3-fluorophenyl)-2-imino-3-[4-(trifluoromethyl)-3-{[3-(trifluoro-methyl)-5,6-dihydro-[1,2,4]triazolo-[4,3-a]pyrazin-7(8H)-yl]carbonyl}-benzyl]imidazolidin-4-one] | 10.5
5 | N=C1N[C@](CCCC(F)(F)F)(c2ccc(F)cc2)C(=O)N1Cc1ccc(C(F)(F)F)c(C(=O)N2Cc3cnc(-c4ccc5ncnn5c4)nc3C2)c1 [Compound 32, (5R)-5-(4-fluorophenyl)-2-imino-3-{3-[(2-[1,2,4]triazolo[1,5-a]pyridin-6-yl-5,7-dihydro-6H-pyrrolo[3,4-d]pyrimidin-6-yl)carbonyl]-4-(trifluoromethyl)benzyl}-5-(4,4,4-trifluorobutyl)imidazolidin-4-one] | 3.21
6 | N=C1NC(c2ccccc2)(c2ccc(-c3ccc(F)cc3)cc2)C(=O)N1Cc1cccc(C(=O)N2Cc3nccnc3C2)c1 (centres unmarked) [Compound 201, 3-[3-(5,7-dihydro-6H-pyrrolo[3,4-b]pyrazin-6-ylcarbonyl)benzyl]-5-(4′-fluorobiphenyl-4-yl)-2-imino-5-phenylimidazolidin-4-one] | 6.32
7 | CC(C)C[C@]1(c2ccccc2)NC(=N)N(Cc2cnc(C(F)(F)F)c(C(=O)N3Cc4nccnc4C3)c2)C1=O [Compound 390, (5R)-3-{[5-(5,7-dihydro-6H-pyrrolo[3,4-b]pyrazin-6-ylcarbonyl)-6-(trifluoromethyl)pyridin-3-yl]methyl}-2-imino-5-(2-methylpropyl)-5-phenylimidazolidin-4-one] | 8.45
8 | N=C1NC(c2ccccc2)(c2ccccc2)C(=O)N1Cc1cccc(C(=O)N2CCn3cc(C(F)(F)F)nc3C2)c1 [Compound 349, 2-imino-5,5-diphenyl-3-(3-{[2-(trifluoromethyl)-5,6-dihydroimidazo-[1,2-a]pyrazin-7(8H)-yl]carbonyl}-benzyl)imidazolidin-4-one] | 84.2
9 | COC(=O)N1CCN(C(=O)c2cccc([C@@H](C)N3C(=N)N[C@](CC(C)C)(c4ccccc4)C3=O)c2)CC1 [Compound 279, methyl 4-[(3-{(1R)-1-[2-imino-4-(2-methylpropyl)-5-oxo-4-phenylimidazolidin-1-yl]ethyl}phenyl)carbonyl] piperazine-1-carboxylate] | 30.5
10 | N=C1NC(c2ccc(F)cc2)(c2ccc(F)cc2)C(=O)N1Cc1cncc(C(=O)N2CCC(n3c(=O)[nH]c4ccccc43)CC2)c1 [Compound 392, 1-{1-[(5-{[4,4-bis(4-fluorophenyl)-2-imino-5-oxoimidazolidin-1-yl]methyl}pyridin-3-yl)carbonyl]piperidin-4-yl}-1,3-dihydro-2H-benzimidazol-2-one] | 61.7
11 | CC(C)CCC1(c2ccccc2)NC(=N)N(Cc2ccc(C(F)(F)F)c(C(=O)N3Cc4cncnc4C3)c2)C1=O (centres unmarked) [Compound 152, 3-[3-(5,7-dihydro-6H-pyrrolo[3,4-d]pyrimidin-6-ylcarbonyl)-4-(trifluoromethyl)benzyl]-2-imino-5-(3-methylbutyl)-5-phenylimidazolidin-4-one] | 7.8
12 | N=C1NC(c2ccccc2)(c2ccccc2)C(=O)N1Cc1ccc(C(F)(F)F)c(C(=O)N2CCNC(=O)C2)c1 [Compound 160, 4-({5-[(2-imino-5-oxo-4,4-diphenylimidazolidin-1-yl)methyl]-2-(trifluoromethyl)phenyl}-carbonyl)piperazin-2-one] | 20.2
13 | COC(=O)N1CCN(C(=O)c2cccc(CN3C(=N)NC(CCC(C)C)(c4ccc(F)cc4)C3=O)c2)CC1 (centres unmarked) [Compound 239, methyl 4-[(3-{[4-(4-fluorophenyl)-2-imino-4-(3-methylbutyl)-5-oxoimidazolidin-1-yl]methyl}phenyl)carbonyl] piperazine-1-carboxylate] | 15.1
14 | CC(C)CCC1(c2ccccc2)NC(=N)N(Cc2ccc(C(F)(F)F)c(C(=O)N3Cc4nccnc4C3)c2)C1=O (centres unmarked) [Compound 151, 3-[3-(5,7-dihydro-6H-pyrrolo[3,4-b]pyrazin-6-ylcarbonyl)-4-(trifluoromethyl)benzyl]-2-imino-5-(3-methylbutyl)-5-phenylimidazolidin-4-one] | 6.62
15 | CC1(C)CN(C(=O)c2cccc(CN3C(=N)NC(c4ccccc4)(c4ccccc4)C3=O)c2)Cc2nnc(C(F)(F)F)n21 [Compound 300, 3-(3-{[5,5-dimethyl-3-(trifluoromethyl)-5,6-dihydro[1,2,4]triazolo[4,3-a]pyrazin-7(8H)-yl]carbonyl}benzyl)-2-imino-5,5-diphenylimidazolidin-4-one] | 44
16 | COC(=O)Nc1ncc2c(n1)CN(C(=O)c1ccc3c(c1)[C@H](N1C(=N)N[C@](CCC(C)C)(c4ccccc4)C1=O)CCC3)C2 [Compound 81, methyl [6-({(8R)-8-[(4R)-2-imino-4-(3-methylbutyl)-5-oxo-4-phenylimidazolidin-1-yl]-5,6,7,8-tetrahydronaphthalen-2-yl}carbonyl)-6,7-dihydro-5H-pyrrolo[3,4-d]pyrimidin-2-yl]carbamate] | 12
17 | N=C1NC(c2ccccc2)(c2ccccc2)C(=O)N1Cc1ccc(Cl)c(C(=O)N2CCC(n3c(=O)[nH]c4ccccc43)CC2)c1 [Compound 383, 1-[1-({2-chloro-5-[(2-imino-5-oxo-4,4-diphenylimidazolidin-1-yl)methyl]phenyl}carbonyl)piperidin-4-yl]-1,3-dihydro-2H-benzimidazol-2-one] | 14.7
18 | COC(=O)N1CCN(C(=O)c2cc(CN3C(=N)NC(c4ccccc4)(c4ccccc4)C3=O)ccc2C(F)(F)F)CC1 [Compound 161, methyl 4-({5-[(2-imino-5-oxo-4,4-diphenylimidazolidin-1-yl)methyl]-2-(trifluoromethyl)phenyl}-carbonyl)piperazine-1-carboxylate] | 25.2
19 | CC(C)CCC1(c2ccc(F)cc2)NC(=N)N(Cc2ccc(C(F)(F)F)c(C(=O)N3CCc4c(cnn4-c4ccccc4)C3)c2)C1=O (centres unmarked) [Compound 164, 5-(4-fluorophenyl)-2-imino-5-(3-methylbutyl)-3-{3-[(1-phenyl-1,4,6,7-tetrahydro-5H-pyrazolo[4,3-c]pyridin-5-yl)carbonyl]-4-(trifluoromethyl)benzyl} imidazolidin-4-one] | 34.1
20 | N=C1NC(c2ccccc2)(c2ccccc2)C(=O)N1Cc1ccc(C(F)(F)F)c(C(=O)N2CCN(c3ncccn3)CC2)c1 [Compound 171, 2-imino-5,5-diphenyl-3-{3-[(4-pyrimidin-2-ylpiperazin-1-yl)carbonyl]-4-(trifluoromethyl)-benzyl}imidazolidin-4-one] | 53
21 | CC(=O)N1CCN(C(=O)c2cc(F)cc(CN3C(=N)NC(c4ccccc4)(c4ccccc4)C3=O)c2)CC1 [Compound 323, 3-{3-[(4-acetylpiperazin-1-yl)carbonyl]-5-fluorobenzyl}-2-imino-5,5-diphenylimidazolidin-4-one] | 57
22 | N#Cc1ncc2c(n1)CN(C(=O)c1cc(CN3C(=N)NC(c4ccc(F)cc4)(c4ccc(F)cc4)C3=O)ccc1Cl)C2 [Compound 363, 6-[(5-{[4,4-bis(4-fluorophenyl)-2-imino-5-oxoimidazolidin-1-yl]methyl}-2-chlorophenyl)carbonyl]-6,7-dihydro-5H-pyrrolo[3,4-d]pyrimidine-2-carbonitrile] | 1.66
23 | CC(c1cccc(C(=O)N2Cc3ccccc3C2)c1)N1C(=N)NC(c2ccccc2)(c2ccccc2)C1=O (centres unmarked) [Compound 224, 3-{1-[3-(1,3-dihydro-2H-isoindol-2-ylcarbonyl)phenyl]ethyl}-2-imino-5,5-diphenylimidazolidin-4-one] | 11.9
24 | N=C1NC(c2ccccc2)(c2ccccc2)C(=O)N1Cc1ccc(F)c(C(=O)N2Cc3cncnc3C2)c1 [Compound 385, 3-[3-(5,7-dihydro-6H-pyrrolo[3,4-d]pyrimidin-6-ylcarbonyl)-4-fluorobenzyl]-2-imino-5,5-diphenylimidazolidin-4-one] | 25.8
25 | CS(=O)(=O)N1CCN(C(=O)c2cc(CN3C(=N)N[C@](CCCC(F)(F)F)(c4ccc(F)cc4)C3=O)ccc2C(F)(F)F)CC1 [Compound 92, (5R)-5-(4-fluorophenyl)-2-imino-3-[3-{[4-(methylsulfonyl)piperazin-1-yl]carbonyl}-4-(trifluoromethyl)-benzyl]-5-(4,4,4-trifluorobutyl)-imidazolidin-4-one] | 17.3
26 | CC(C)CC1(c2ccccc2)NC(=N)N(Cc2ccc(C(F)(F)F)c(C(=O)N3Cc4cncnc4C3)c2)C1=O (centres unmarked) [Compound 150, 3-[3-(5,7-dihydro-6H-pyrrolo[3,4-d]pyrimidin-6-ylcarbonyl)-4-(trifluoromethyl)benzyl]-2-imino-5-(2-methylpropyl)-5-phenylimidazolidin-4-one] | 5.49
